Source: patent US20260069596A1 (Cardiff Oncology, Inc., priority 2024, published 2026)
“Also recorded” adds a separate entry of the source.

Assays:
[1] = test system: advanced/metastatic solid tumors; conditions: single agent; cited from earlier work
[2] = cited from earlier work
CYP1A2 = molecular target: T1, CYP1A2 (Homo sapiens, UniProt P05177); conditions: human liver microsomes; cited from earlier work
T1 construct: was investigated using human liver microsomes; from tissue; host or cells: human liver microsomes
T1 sequence (P05177 1-516): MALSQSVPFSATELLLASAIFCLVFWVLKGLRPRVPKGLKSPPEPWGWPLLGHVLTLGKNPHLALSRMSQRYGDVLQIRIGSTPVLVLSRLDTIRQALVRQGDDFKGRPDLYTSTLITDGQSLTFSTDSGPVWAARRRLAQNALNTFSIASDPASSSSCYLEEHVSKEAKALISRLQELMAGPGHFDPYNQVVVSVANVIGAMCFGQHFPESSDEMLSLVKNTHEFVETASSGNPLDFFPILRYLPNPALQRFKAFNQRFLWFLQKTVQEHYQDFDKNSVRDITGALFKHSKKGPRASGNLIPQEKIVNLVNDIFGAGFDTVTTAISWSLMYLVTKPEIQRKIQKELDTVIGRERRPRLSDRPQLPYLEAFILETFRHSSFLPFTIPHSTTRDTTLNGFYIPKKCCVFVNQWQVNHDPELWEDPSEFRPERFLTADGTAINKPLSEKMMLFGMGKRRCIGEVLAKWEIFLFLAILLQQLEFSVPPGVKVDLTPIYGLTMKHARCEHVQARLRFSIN

[3] = test system: RAS^WT colorectal cancer patient derived xenograft (PDX) models; test: Example 2: antitumor activity in RAS^WT colorectal cancer PDX models; format: in vivo, mice
Method: Tumor volumes (TV) were measured twice a week, and % tumor volume change (TVC) from baseline was calculated as follows: (TVi/TV0−1)×100. Tumor stasis defined as TVC between 0 and 20%, and tumor regression as TVC less than 0% at last measurement. Results are presented as mean±SEM.

For CN1CCN(c2ccc(OC(F)(F)F)c(Nc3ncc4c(n3)-c3c(c(C(N)=O)nn3CCO)CC4)c2)CC1 [Onvansertib, 1-(2-hydroxyethyl)-8-{[5-(4-methylpiperazin-1-yl)-2-(trifluoromethoxy)phenyl]amino}-4,5-dihydro-1H-pyrazolo[4,3-h]quinazoline-3-carboxamide], the “best observed treatment response” value [1] is listed as “stable disease”, the DLTs ([2]; doses of 6, 12, and 24 mg/m^2/day, oral, 5 consecutive days every 3 weeks) is listed as “No DLTs” and the “primary dose-limiting toxicities / primary toxicities” value ([2]; phase I, patients with advanced/metastatic solid tumors) is listed as “neutropenia and thrombocytopenia; also recorded: thrombocytopenia and neutropenia”. The “recovery time of hematologic toxicities” value ([2]; reversible toxicities) was no more than 3 weeks, the “inhibitory effect against CYP1A2” value (CYP1A2) was “No significant inhibitory effects” and the “models with tumor stasis or regression” value ([3]; 7 PDXs sensitive to cetuximab) was “five”. For the same compound, the “models with potent antitumor activity” value ([3]; PDX models sensitive to cetuximab, 71%) was 5/7, the “models with tumor regression (TVC less than 0%)” value ([3]; all 20 models) was 11 models and the “models with tumor stasis (TVC between 0 and 20%)” value ([3]; all 20 models) was 3 models.
